Laboratory results published in publication PMC11951083, “Highly Specific Miniaturized Fluorescent Monoacylglycerol Lipase Probes Enable Translational Research” (Journal of the American Chemical Society, 2025).
Values after ≈ are worked out from the molar mass of the structure shown. Like-named read-outs stand apart in the source and are kept apart here.

Legend:
[1] = High throughput kinetic solubility measurement; format: physicochemical; conditions: phosphate buffer, pH 6.5, aqueous buffer, kinetic from dmso stock
[2] = biological target: T1, cMAGL (Macaca fascicularis, UniProt A0A2K5V664); experiment: Native MS (RapidFire) 2-AG substrate assay, purified cynomolgus monkey MAGL; format: biochemical
T1 sequence (A0A2K5V664 11-297): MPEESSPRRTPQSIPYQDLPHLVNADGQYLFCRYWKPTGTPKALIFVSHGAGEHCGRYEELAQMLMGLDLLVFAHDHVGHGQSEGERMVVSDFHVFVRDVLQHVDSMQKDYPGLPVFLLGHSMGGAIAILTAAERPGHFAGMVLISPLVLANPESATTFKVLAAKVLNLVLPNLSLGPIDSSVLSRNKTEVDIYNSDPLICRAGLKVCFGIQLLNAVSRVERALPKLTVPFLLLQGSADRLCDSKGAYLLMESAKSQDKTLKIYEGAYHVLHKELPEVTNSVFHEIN
Method: (§1) In vitro MAGL Inhibition Assay
(§2) Compounds were profiled for MAGL inhibitory activity by determining the enzymatic activity by following the hydrolysis of the natural substrate 2-arachidonoylglycerol (2-AG), resulting in arachidonic acid, which can be followed by mass spectrometry. The 2-AG assay was carried out in 384 well assay plates (PP, Greiner Cat# 784201) in a total volume of 20 µL. Compound dilutions were made in 100% DMSO (VWR Chemicals 23500.297) in a polypropylene plate in 3-fold dilution steps to give a final concentration range in the assay from 12.5 µM to 0.8 pM. 0.25µL compound dilutions (100% DMSO) were added to 9 µL MAGL in assay buffer (50 mM TRIS (GIBCO, 15567-027), 1 mM EDTA (Fluka, 03690-100 mL), 0.01% (v/v) Tween. After shaking, the plate was incubated for 15 min at RT. To start the reaction, 10 µL 2-arachidonoylglycerol in assay buffer was added. The final concentrations in the assay were 50 pM MAGL and 8 µM 2-arachidonoylglyerol. After shaking and 30 min incubation at RT, the reaction was quenched by the addition of 40µL of ACN containing 4µM of d8-arachidonic acid. The amount of arachidonic acid was traced by an online SPE system (Agilent Rapidfire) coupled to a triple quadrupole mass spectrometer (Agilent 6460). A C18 SPE cartridge (G9205A) was used in an ACN/water liquid setup. The mass spectrometer was operated in negative electrospray mode following the mass transitions 303.1 → 259.1 for arachidonic acid and 311.1 → 267.0 for d8-arachidonic acid. The activity of the compounds was calculated based on the ratio of intensities [arachidonic acid / d8-arachidonic acid]. The lowest IC50 value that can be determined with high accuracy is approximately 0.025 nM.

[3] = biological target: T2, mMAGL (Mus musculus, UniProt O35678); experiment: Native MS (RapidFire) 2-AG substrate assay, purified mouse MAGL; format: biochemical; conditions: purified mouse MAGL, native MS substrate assay; read-out: IC50 mMAGL
T2 sequence (O35678 1-303): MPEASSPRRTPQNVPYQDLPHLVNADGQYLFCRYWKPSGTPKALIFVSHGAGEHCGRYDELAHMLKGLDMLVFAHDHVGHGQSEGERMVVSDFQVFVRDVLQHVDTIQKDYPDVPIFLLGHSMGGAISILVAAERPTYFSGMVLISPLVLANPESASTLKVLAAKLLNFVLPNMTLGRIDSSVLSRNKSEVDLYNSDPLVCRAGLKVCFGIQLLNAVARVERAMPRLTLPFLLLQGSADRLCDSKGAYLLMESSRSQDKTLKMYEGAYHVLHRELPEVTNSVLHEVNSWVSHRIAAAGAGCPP
Method: as §1, §2

[4] = biological target: T3, rMAGL (Rattus norvegicus, UniProt Q8R431); experiment: Native MS (RapidFire) 2-AG substrate assay, purified rat MAGL; format: biochemical; conditions: for IC50: purified rat MAGL, native MS substrate assay, read-out: IC50 rMAGL
T3 sequence (Q8R431 1-303): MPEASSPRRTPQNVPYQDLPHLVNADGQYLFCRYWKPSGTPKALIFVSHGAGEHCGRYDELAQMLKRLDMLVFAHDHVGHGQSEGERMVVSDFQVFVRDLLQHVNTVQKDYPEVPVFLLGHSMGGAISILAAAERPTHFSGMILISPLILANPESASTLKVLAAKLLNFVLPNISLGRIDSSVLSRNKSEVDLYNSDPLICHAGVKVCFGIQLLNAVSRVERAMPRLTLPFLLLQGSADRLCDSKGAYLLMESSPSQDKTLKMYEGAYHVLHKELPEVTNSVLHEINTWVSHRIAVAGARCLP
Method: as §1, §2

[5] = biological target: T4, MAGL (Homo sapiens, UniProt Q99685); experiment: Native MS (RapidFire) 2-AG substrate assay, purified human MAGL; format: biochemical; conditions: purified human MAGL, native MS substrate assay; IC50 of covalent inhibitors time-dependent; read-out: IC50 hMAGL
T4 sequence (Q99685 1-303): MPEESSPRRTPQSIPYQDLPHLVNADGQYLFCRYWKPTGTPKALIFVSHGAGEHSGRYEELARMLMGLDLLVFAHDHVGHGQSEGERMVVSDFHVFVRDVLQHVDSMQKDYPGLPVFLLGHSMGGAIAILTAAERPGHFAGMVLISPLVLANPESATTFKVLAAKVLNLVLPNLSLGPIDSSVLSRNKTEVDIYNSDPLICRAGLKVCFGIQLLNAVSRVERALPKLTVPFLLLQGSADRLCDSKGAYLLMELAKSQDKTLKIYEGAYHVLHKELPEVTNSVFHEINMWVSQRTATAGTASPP
Method: as §1, §2

[6] = purified cynomolgus monkey MAGL, native MS substrate assay, read-out: IC50 cMAGL

Row | loss of potency against rat or cynomolgus monkey orthologs ([4]; rat or cynomolgus monkey MAGL) | Compound | solubility kinetic [1] | IC50 [2, 6] | IC50 [3] | IC50 [4] | IC50 [5] | IC50 [2]
1 |  | O=C(O[C@H](CO)C(F)(F)F)N1CC2(CC(CC3=C4C=CC=[N+]4[B-](F)(F)n4cccc43)C2)C1 [Compound 1] | 19 µg/mL (≈ 41.6 µM) | 0.87 nM | 0.21 nM | 0.36 nM | 0.28 nM | 
2 |  | O=C(OC(C(F)(F)F)C(F)(F)F)N1CC2(CC(CC3=C4C=CC=[N+]4[B-](F)(F)n4cccc43)C2)C1 [Compound 2] | < 3 µg/mL | 0.24 nM | 0.33 nM | 0.2 nM | 0.39 nM | 
3 |  | O=C(OC(C(F)(F)F)C(F)(F)F)N1CC2(CC(CC3=C4C=CC(c5ccc[nH]5)=[N+]4[B-](F)(F)n4cccc43)C2)C1 [Compound 2a] | < 1 µg/mL | 0.63 nM | 0.79 nM | 0.68 nM | 0.98 nM | 
4 | less than 4 fold | O=C1CO[C@H]2CCN(C(=O)N3CC4(CC(CC5=C6C=CC=[N+]6[B-](F)(F)n6cccc65)C4)C3)C[C@H]2N1 [Compound 4] | 112 µg/mL (≈ 232 µM) | 1.14 nM | 1.33 nM | 2.4 nM | 0.94 nM | 
5 |  | O=C1CO[C@H]2CCN(C(=O)N3CC4(CC(CC5=C6C=CC(c7ccc[nH]7)=[N+]6[B-](F)(F)n6cccc65)C4)C3)C[C@H]2N1 [Compound 4a] | < 0.3 µg/mL |  | 0.18 nM | 0.47 nM | 0.14 nM | 0.2 nM
6 |  | O=C(N1CC2(CC(CC3=C4C=CC=[N+]4[B-](F)(F)n4cccc43)C2)C1)N1CC2(CC(n3cnc(C4CC4)n3)C2)C1 [Compound 5] | 46 µg/mL (≈ 86.6 µM) |  | 1.03 nM | 0.98 nM | 0.58 nM | 0.5 nM
